Measurements taken from ChEMBL document CHEMBL6182931, “Chemical Evolution of Aplithianine Class of Serine/Threonine Kinase Inhibitors” (J Med Chem, 2025).
Activity calls are given as the source filed them. No cut-off for these calls is given here.

Legend:
MOLT-4 = experiment: Antiproliferative activity against human MOLT-4 cells assessed as growth inhibition; assay type: functional
SR = experiment: Antiproliferative activity against human SR cells assessed as growth inhibition; assay type: functional
OVCAR-4 = experiment: Antiproliferative activity against human OVCAR-4 cells assessed as growth inhibition; assay type: functional, cell-based
Homo sapiens [1] = species: Homo sapiens; experiment: Induction of thermal stabilization of His-tagged DNAJB1-PKAcalpha (unknown origin) incubated for 15 min by differential scanning fluorometric analysis
NCI/ADR-RES = experiment: Antiproliferative activity against human NCI/ADR-RES cells assessed as growth inhibition; assay type: functional, cell-based
Homo sapiens [2] = species: Homo sapiens; experiment: Induction of thermal stabilization of His-tagged DNAJB1-PKAcalpha (unknown origin) assessed as change in melting temperature incubated for 15 min by differential scanning fluorometric analysis
LOX IMVI = experiment: Antiproliferative activity against human LOX IMVI cells assessed as growth inhibition; assay type: functional
MDA-MB-468 = experiment: Antiproliferative activity against human MDA-MB-468 cells assessed as growth inhibition; assay type: functional, cell-based
[3] = Inhibition of DNAJB1-PKAcalpha (unknown origin) using biotinylated-peptide substrate CREB incubated for 45 mins in presence of ATP and cAMP by ELISA; design: species or system Homo sapiens
[4] = Inhibition of DNAJB1-PKAcalpha (unknown origin) overexpressed in mouse NIH/3T3 cells assessed as inhibition of CREB phosphorylation at Ser133 residue preincubated for 30 mins followed by forskolin addition and measured after 30 mins by fluorescence based multilabel reader analysis; assay type: cell-based; details: NIH3T3
[5] = biological target: Dual specificity protein kinase CLK1 (Homo sapiens) (UniProt P49759); experiment: Inhibition of human CLK1 at 50 nM in presence of ATP by radiometric Hotspot kinase assay relative to control
Chain of Dual specificity protein kinase CLK1 (Homo sapiens) (P49759 whole entry, looked up): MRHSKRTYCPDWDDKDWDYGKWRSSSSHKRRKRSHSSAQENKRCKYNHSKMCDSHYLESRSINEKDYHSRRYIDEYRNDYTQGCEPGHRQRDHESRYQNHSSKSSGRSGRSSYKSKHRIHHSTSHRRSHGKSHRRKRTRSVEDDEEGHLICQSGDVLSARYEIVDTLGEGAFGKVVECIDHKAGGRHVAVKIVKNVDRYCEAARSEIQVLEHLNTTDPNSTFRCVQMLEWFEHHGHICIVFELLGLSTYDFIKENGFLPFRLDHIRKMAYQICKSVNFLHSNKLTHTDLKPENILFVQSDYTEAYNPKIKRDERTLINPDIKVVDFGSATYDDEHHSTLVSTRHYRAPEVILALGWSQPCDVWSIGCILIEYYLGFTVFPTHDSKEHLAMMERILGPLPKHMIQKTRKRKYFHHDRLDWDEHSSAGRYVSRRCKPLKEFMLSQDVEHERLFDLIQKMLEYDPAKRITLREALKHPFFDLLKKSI

[6] = biological target: Dual specificity protein kinase CLK2 (Homo sapiens) (UniProt P49760); experiment: Inhibition of human CLK2 at 50 nM in presence of ATP by radiometric Hotspot kinase assay relative to control
Chain of Dual specificity protein kinase CLK2 (Homo sapiens) (P49760 whole entry, looked up): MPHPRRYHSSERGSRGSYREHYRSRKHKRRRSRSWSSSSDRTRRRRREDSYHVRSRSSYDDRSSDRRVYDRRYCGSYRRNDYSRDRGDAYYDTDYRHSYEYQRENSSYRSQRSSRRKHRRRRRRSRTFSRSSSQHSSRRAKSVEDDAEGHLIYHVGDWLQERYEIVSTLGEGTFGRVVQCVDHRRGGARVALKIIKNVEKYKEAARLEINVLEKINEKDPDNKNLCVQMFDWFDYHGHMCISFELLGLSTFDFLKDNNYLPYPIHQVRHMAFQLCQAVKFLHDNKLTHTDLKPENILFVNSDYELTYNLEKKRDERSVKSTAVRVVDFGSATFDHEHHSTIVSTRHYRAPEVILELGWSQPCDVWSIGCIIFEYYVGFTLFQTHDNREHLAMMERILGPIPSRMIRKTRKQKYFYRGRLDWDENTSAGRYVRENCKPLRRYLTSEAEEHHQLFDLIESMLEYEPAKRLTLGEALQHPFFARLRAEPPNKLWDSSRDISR

Albumin = Albumin (Homo sapiens, UniProt P02768); experiment: Binding affinity to human serum albumin assessed as protein binding at 10 uM by equilibrium dialysis technique relative to control; assay type: ADME; details: isolated protein
Chain of Albumin (P02768 whole entry): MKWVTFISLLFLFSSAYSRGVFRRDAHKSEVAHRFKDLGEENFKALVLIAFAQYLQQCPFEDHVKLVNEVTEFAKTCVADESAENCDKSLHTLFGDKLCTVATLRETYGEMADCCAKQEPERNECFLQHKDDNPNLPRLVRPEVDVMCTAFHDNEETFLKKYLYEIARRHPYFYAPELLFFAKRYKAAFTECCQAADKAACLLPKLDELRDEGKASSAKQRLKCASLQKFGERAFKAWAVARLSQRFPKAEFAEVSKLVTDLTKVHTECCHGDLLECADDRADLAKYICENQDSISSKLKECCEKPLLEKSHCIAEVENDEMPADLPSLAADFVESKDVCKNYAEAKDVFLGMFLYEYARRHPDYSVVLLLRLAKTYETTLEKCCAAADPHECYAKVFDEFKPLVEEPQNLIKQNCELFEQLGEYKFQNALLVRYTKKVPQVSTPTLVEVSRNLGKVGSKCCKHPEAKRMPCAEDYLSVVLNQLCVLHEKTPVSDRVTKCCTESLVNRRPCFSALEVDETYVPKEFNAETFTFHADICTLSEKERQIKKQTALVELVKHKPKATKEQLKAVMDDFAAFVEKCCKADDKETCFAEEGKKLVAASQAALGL

[7] = biological target: cAMP-dependent protein kinase catalytic subunit beta (Homo sapiens) (UniProt P22694); experiment: Inhibition of human PKAbeta at 50 nM in presence of ATP by radiometric Hotspot kinase assay
[8] = biological target: cAMP-dependent protein kinase catalytic subunit alpha (Homo sapiens) (UniProt P17612); details: dose 50.0 nM
Description: Inhibition of human PKAalpha at 50 nM in presence of ATP by radiometric Hotspot kinase assay relative to control

[9] = biological target: T1, cGMP-dependent protein kinase 1 (Homo sapiens) (UniProt Q13976); details: dose 50.0 nM
T1 sequence (whole entry): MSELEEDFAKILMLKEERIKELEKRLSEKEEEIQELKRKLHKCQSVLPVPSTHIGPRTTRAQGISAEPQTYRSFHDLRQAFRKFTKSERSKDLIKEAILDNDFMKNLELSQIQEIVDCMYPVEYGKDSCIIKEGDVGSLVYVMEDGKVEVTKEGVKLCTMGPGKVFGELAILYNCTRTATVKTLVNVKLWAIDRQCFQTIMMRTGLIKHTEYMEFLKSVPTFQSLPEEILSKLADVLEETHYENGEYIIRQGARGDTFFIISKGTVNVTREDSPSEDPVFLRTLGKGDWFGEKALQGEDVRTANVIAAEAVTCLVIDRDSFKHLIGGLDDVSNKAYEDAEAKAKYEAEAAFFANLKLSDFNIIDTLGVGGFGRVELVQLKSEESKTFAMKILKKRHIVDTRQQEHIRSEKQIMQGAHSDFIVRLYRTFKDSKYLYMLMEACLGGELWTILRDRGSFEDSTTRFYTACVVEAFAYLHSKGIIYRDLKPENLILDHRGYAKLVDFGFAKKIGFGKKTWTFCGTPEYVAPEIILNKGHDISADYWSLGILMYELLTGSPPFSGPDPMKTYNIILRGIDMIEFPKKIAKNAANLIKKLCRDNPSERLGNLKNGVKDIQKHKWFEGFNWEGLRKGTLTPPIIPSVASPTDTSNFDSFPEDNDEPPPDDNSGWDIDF
Description: Inhibition of human PKG1alpha at 50 nM in presence of ATP by radiometric Hotspot kinase assay

[10] = biological target: Dual specificity protein kinase CLK3 (Homo sapiens) (UniProt P49761); experiment: Inhibition of human CLK3 at 50 nM in presence of ATP by radiometric Hotspot kinase assay relative to control
Chain of Dual specificity protein kinase CLK3 (Homo sapiens) (P49761 whole entry, looked up): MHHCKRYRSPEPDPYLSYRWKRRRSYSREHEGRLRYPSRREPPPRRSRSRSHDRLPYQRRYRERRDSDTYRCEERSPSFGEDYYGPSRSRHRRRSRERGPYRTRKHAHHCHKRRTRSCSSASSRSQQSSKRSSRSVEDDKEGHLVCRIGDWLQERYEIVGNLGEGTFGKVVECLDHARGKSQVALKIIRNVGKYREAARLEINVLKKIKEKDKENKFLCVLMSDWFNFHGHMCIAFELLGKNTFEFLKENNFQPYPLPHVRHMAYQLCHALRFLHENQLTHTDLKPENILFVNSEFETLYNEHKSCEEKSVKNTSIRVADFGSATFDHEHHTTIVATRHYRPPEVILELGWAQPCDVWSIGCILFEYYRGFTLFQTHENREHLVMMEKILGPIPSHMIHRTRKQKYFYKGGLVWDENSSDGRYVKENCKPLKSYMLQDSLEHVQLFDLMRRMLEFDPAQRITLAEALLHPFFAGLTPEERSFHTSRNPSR

[11] = biological target: Dual specificity tyrosine-phosphorylation-regulated kinase 4 (Homo sapiens) (UniProt Q9NR20); experiment: Inhibition of human DYRK4 at 50 nM in presence of ATP by radiometric Hotspot kinase assay relative to control
Chain of Dual specificity tyrosine-phosphorylation-regulated kinase 4 (Homo sapiens) (Q9NR20 whole entry): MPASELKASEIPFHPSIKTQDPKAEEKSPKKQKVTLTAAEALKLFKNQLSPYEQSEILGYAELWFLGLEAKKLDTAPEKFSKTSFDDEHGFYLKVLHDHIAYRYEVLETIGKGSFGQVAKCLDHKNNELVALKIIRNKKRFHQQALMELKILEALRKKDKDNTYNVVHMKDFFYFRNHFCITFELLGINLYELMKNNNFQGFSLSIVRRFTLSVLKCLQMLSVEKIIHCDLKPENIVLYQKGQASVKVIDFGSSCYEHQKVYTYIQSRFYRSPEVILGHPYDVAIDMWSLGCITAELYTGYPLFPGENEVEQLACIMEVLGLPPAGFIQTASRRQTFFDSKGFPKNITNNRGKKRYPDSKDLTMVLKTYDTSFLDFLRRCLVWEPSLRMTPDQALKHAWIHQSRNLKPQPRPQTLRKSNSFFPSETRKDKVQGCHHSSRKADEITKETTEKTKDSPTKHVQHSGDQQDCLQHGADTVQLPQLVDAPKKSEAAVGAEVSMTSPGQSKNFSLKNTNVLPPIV

[12] = biological target: T2, Dual specificity tyrosine-phosphorylation-regulated kinase 2 (Homo sapiens) (UniProt Q92630); experiment: Inhibition of human DYRK2 at 50 nM in presence of ATP by radiometric Hotspot kinase assay relative to control
T2 sequence (whole entry): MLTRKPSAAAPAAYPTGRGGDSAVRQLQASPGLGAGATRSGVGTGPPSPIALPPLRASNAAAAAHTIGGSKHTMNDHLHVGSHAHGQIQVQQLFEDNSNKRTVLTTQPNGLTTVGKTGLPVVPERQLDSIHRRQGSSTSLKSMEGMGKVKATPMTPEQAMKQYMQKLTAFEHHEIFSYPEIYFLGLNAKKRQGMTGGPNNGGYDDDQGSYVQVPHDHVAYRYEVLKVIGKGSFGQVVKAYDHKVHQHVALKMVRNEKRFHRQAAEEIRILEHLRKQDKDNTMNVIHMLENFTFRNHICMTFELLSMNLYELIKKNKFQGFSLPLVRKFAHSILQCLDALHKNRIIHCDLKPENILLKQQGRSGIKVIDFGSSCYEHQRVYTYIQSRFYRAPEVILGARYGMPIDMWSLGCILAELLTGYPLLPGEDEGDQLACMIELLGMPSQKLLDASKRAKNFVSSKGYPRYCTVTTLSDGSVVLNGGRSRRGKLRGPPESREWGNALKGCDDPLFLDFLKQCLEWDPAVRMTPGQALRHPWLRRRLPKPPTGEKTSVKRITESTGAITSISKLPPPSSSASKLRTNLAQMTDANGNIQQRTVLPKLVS

[13] = biological target: Dual specificity tyrosine-phosphorylation-regulated kinase 1A (Homo sapiens) (UniProt Q13627); experiment: Inhibition of human DYRK1A at 50 nM in presence of ATP by radiometric Hotspot kinase assay relative to control
[14] = biological target: Dual specificity tyrosine-phosphorylation-regulated kinase 1B (Homo sapiens) (UniProt Q9Y463); experiment: Inhibition of human DYRK1B at 50 nM in presence of ATP by radiometric Hotspot kinase assay relative to control
Chain of Dual specificity tyrosine-phosphorylation-regulated kinase 1B (Homo sapiens) (Q9Y463 whole entry, looked up): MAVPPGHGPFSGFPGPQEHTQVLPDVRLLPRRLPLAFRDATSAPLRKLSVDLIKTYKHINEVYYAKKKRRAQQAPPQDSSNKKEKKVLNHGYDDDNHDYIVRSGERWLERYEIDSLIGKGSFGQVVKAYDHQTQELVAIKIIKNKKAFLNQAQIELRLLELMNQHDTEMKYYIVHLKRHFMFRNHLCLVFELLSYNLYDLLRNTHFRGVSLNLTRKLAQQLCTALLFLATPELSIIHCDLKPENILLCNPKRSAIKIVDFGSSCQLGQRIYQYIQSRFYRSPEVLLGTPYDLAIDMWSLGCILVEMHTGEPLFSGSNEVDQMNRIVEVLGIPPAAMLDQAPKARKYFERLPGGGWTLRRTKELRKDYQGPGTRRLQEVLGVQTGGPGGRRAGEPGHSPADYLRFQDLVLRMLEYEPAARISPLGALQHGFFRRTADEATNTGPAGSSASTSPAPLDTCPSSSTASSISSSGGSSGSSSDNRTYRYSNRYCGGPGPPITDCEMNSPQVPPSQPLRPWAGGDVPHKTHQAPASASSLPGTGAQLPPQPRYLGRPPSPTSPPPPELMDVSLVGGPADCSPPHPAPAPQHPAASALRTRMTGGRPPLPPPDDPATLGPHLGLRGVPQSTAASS

[15] = biological target: T3, Dual specificity tyrosine-phosphorylation-regulated kinase 3 (Homo sapiens) (UniProt O43781); experiment: Inhibition of human DYRK3 at 50 nM in presence of ATP by radiometric Hotspot kinase assay relative to control
T3 sequence (whole entry): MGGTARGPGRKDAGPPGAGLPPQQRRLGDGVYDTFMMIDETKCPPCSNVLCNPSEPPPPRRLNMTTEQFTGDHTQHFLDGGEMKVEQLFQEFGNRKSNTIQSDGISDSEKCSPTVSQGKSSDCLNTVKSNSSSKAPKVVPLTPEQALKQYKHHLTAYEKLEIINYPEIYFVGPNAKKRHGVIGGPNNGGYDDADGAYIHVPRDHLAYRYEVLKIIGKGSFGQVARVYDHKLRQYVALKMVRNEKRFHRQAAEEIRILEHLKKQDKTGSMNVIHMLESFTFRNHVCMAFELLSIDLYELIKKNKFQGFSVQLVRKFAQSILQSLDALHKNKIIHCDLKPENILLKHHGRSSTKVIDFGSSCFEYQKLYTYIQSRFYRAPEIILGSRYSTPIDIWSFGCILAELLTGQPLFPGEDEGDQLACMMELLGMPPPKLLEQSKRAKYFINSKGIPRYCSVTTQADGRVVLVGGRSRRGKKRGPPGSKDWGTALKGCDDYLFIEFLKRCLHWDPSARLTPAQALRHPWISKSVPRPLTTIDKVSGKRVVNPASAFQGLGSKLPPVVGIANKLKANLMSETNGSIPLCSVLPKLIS

[16] = biological target: Dual specificity protein kinase CLK4 (Homo sapiens) (UniProt Q9HAZ1); experiment: Inhibition of human CLK4 at 50 nM in presence of ATP by radiometric Hotspot kinase assay relative to control
Chain of Dual specificity protein kinase CLK4 (Homo sapiens) (Q9HAZ1 whole entry, looked up): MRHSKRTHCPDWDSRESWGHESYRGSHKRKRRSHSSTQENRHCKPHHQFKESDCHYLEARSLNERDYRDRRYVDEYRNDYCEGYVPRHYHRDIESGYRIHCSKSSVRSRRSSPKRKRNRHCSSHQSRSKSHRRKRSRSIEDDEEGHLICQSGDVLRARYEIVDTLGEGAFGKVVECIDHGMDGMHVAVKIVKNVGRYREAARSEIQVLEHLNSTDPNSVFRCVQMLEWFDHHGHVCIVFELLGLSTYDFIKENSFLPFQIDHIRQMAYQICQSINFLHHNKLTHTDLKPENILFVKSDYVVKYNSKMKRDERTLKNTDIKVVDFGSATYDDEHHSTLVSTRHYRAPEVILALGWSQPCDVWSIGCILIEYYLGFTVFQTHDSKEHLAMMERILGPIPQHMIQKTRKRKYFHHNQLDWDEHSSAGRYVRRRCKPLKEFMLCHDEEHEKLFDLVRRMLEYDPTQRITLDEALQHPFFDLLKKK

| SMILES | Activity (MOLT-4) | Activity (SR) | Activity (OVCAR-4) | Activity (NCI/ADR-RES) | GI50 (LOX IMVI) | Activity (MDA-MB-468) | IC50 [3] | IC50 [4] | further results |
| --- | --- | --- | --- | --- | --- | --- | --- | --- | --- |
| Cn1cnc(Br)c1C1=CN(c2ncnc3[nH]cnc23)CCS1 | Active | Active | inactive | inactive | > 1000 nM | Active |  |  | Activity (Homo sapiens [1]): Dose-dependent-effect; ΔTm (Homo sapiens [2]): 3.1 °C |
| Cc1cc(N2C=C(c3ccnc4[nH]ccc34)SCC2)ncn1 | Active | Active | inactive | inactive | > 1000 nM | Active | 200 nM |  |  |
| Cn1cncc1C1=CN(c2ncnc3[nH]ccc23)CCS1 | Active | Active | inactive | inactive | > 1000 nM | Active | 150 nM | > 10000 nM |  |
| Cn1cncc1C1=CN(c2ncnc3[nH]cnc23)CCS1 |  |  |  |  |  |  |  |  | inhibition [5]: Active; inhibition [6]: Active; PB (Albumin): 98%; inhibition [7]: Active |
| Cn1cc(C2=CN(c3ncnc4[nH]ccc34)CCS2)cn1 | Active | Active | inactive | inactive | > 1000 nM | Active | 440 nM |  |  |
| Cn1cncc1C1=CN(c2ccnc3[nH]ccc23)CCS1 | Active | Active | inactive | inactive | > 1000 nM | Active | 860 nM |  | inhibition [5]: Active; inhibition [8]: 1.7%; inhibition [9]: Active |
| Cc1c[nH]c2ncnc(N3C=C(c4cncn4C)SCC3)c12 | Active | Active | inactive | inactive | > 1000 nM | Active | 92 nM | 8200 nM |  |
| Cn1cncc1N1C=C(c2ccnc3[nH]ccc23)SCC1 | Active | Active | inactive | inactive | > 1000 nM | Active | 25 nM | 5560 nM | inhibition [5]: < 50%; inhibition [10]: < 50%; inhibition [11]: < 50%; inhibition [12]: < 50%; Activity (Homo sapiens [1]): Dose-dependent-effect; inhibition [13]: < 50%; inhibition [8]: 47%; inhibition [14]: < 50%; inhibition [15]: < 50%; inhibition [16]: < 50%; ΔTm (Homo sapiens [2]): 6 °C; inhibition [6]: < 50%; inhibition [7]: Active; inhibition [9]: Active |
| C[C@@]1(N)CCCN(C(=O)C2=CN(c3ccnc4[nH]ccc34)CCS2)C1 |  |  |  |  |  |  | 16 nM | 3600 nM |  |
| C1=C(c2ccnc3[nH]ccc23)SCCN1c1ncnc2occc12 | Active | Active | inactive | inactive | > 1000 nM | Active | 19 nM |  |  |
| C1=C(c2ccnc3[nH]ccc23)SCCN1c1ncnc2sccc12 | Active | Active | inactive | inactive | > 1000 nM | Active | 310 nM |  |  |
| C[C@H]1CCN(C(=O)C2=CN(c3ncnc4[nH]ccc34)CCS2)C[C@@H]1N |  |  |  |  |  |  | 7 nM | 2500 nM |  |
| C1=C(c2ccnc3[nH]ccc23)SCCN1c1ccncn1 | Active | Active | inactive | inactive | > 1000 nM | Active | 6.3 nM | 282 nM | Activity (Homo sapiens [1]): Dose-dependent-effect; ΔTm (Homo sapiens [2]): 7.9 °C |
| C1=C(c2ccnc3[nH]ccc23)SCCN1c1ncnc2[nH]ccc12 | Active | Active | inactive | inactive | > 1000 nM | Active |  |  | inhibition [5]: < 50%; inhibition [10]: < 50%; inhibition [11]: < 50%; inhibition [12]: < 50%; inhibition [13]: < 50%; inhibition [14]: < 50%; inhibition [15]: < 50%; inhibition [16]: < 50%; inhibition [6]: < 50%; inhibition [7]: Active; inhibition [9]: Active |
| C[C@@]1(N)CCCN(C(=O)C2=CN(c3ncnc4[nH]ccc34)CCS2)C1 | Active | Active | inactive | inactive | > 1000 nM | Active |  | 4400 nM |  |
| C[C@@H]1C[C@@H](N)CN(C(=O)C2=CN(c3ncnc4[nH]ccc34)CCS2)C1 | Active | Active | inactive | inactive | > 1000 nM | Active | 6 nM | 2700 nM |  |
